Results on 16 compounds are retold here after ChEMBL document CHEMBL1158321, “In vitro anti-HIV activity of biflavonoids isolated from Rhus succedanea and Garcinia multiflora” (J Nat Prod, 1997).

A value given as a limit tells only on which side of the number the result lay.

For test [1], the target named is Human immunodeficiency virus type 1 reverse transcriptase (Human immunodeficiency virus 1, UniProt Q72547). The test can be described thus: (§1) Inhibition of HIV1 recombinant reverse transcriptase p66/p51 expressed in Escherichia coli.
Test [2] has as its target Human immunodeficiency virus type 1 reverse transcriptase (Human immunodeficiency virus 1) (UniProt Q72547). Nature of the test: Inhibition of HIV1 recombinant reverse transcriptase p66/p51 expressed in Escherichia coli at 200 ug/mL.
For test [3], the system named is Human immunodeficiency virus 1. The test can be described thus: Antiviral activity against HIV1 LAV-1 in PHA-stimulated human PBMC after 6 days. The class given is functional, organism-based. To be noted: Human immunodeficiency virus 1, LAV-1, 144 h.
Test [4] in a line: Selectivity index, ratio of IC50 for human PBMC to EC50 for HIV1 LAV-1.
The next test deals with PBMC. Nature of the test: Cytotoxicity against uninfected PHA-stimulated human PBMC assessed as thymidine incorporation after 24 hrs […]. In kind it is cell-based. (In general: Dividing cells build labelled thymidine or BrdU into new DNA.)
The target in test [5] is Human immunodeficiency virus type 1 reverse transcriptase (Human immunodeficiency virus 1) (UniProt Q72547). The test is described as §1. The arrangement: concentration or dose not given beside the values. To be noted: concentration not given here.

Regarding `O=C1C[C@@H](c2ccc(O)c(O)c2)Oc2c1c(O)cc(O)c2[C@H]1C(=O)c2c(O)cc(O)cc2O[C@@H]1c1ccc(O)cc1`, the IC50 in test [1] was found to be 170 µM. Besides, in test [2], the inhibition is 96%.
In the case of `O=C1C[C@@H](c2ccc(O)cc2)Oc2c1c(O)cc(O)c2[C@H]1C(=O)c2c(O)cc(O)cc2O[C@@H]1c1ccc(O)cc1`, the IC50 in test [1] came out at 236 µM; in the test on PBMC, 88 µM. Also, in test [2], the inhibition was found to be 86%. In test [3], the EC50 is 38 µM. In addition, the “Selectivity Index” value in test [4] is on record as 2.3.
Consider `COc1ccc(-c2cc(=O)c3c(OC)cc(OC)c([C@@H]4C(=O)c5c(OC)cc(OC)cc5O[C@H]4c4ccc(OC)cc4)c3o2)cc1`, for which the inhibition is less than 30% in test [5] and 0% in test [2].
As for `COc1ccc([C@@H]2CC(=O)c3c(OC)cc(OC)c([C@H]4C(=O)c5c(OC)cc(OC)cc5O[C@@H]4c4ccc(OC)cc4)c3O2)cc1`, the inhibition in test [2] was found to be 0%.
Consider `COc1ccc([C@@H]2Oc3cc(OC)cc(OC)c3C(=O)[C@H]2c2c(OC)cc(OC)c3c(=O)cc(-c4ccc(OC)c(OC)c4)oc23)cc1`, for which the inhibition in test [5] was less than 30%; in test [2], 0%.
For the compound `Cc1ccc([C@@H]2CC(=O)c3c(cc(O)c(-c4c(O)cc(O)c5c4O[C@H](c4ccc(O)cc4)CC5=O)c3O)O2)cc1`, the inhibition in test [5] is less than 30%; in test [2], 14.1%.
As to `O=C1C[C@@H](c2ccc(O)cc2)Oc2c1c(O)cc(O[C@@H]1O[C@H](CO)[C@@H](O)[C@H](O)[C@H]1O)c2[C@H]1C(=O)c2c(O)cc(O)cc2O[C@@H]1c1ccc(O)cc1`, the inhibition in test [2] worked out at 1.5%.
For the compound `O=C1C[C@@H](c2ccc(O)cc2)Oc2cc(O)c(-c3c(O)cc4c(c3O)C(=O)C[C@@H](c3ccc(O)cc3)O4)c(O)c21`, the inhibition in test [5] was less than 30%; in test [2] it was 22.1%.
On the same counts, the results for `O=C1C[C@@H](c2ccc(O)cc2)Oc2cc(O)cc(O)c21` are 30% and 34.9%.
On the same counts, the results for `O=C1c2c(O)cc(O)cc2O[C@@H](c2ccc(O)cc2)[C@@H]1c1c(O)cc(O)c2c(=O)cc(-c3ccc(O)cc3)oc12` are 30% and 45.3%.
Turning to `O=c1cc(-c2ccc(O)c(-c3c(O)cc(O)c4c(=O)cc(-c5ccc(O)cc5)oc34)c2)oc2cc(O)cc(O)c12` [AMENTOFLAVONE], the IC50 in test [1] was found to be 119 µM; in the test on PBMC it was 35 µM. Besides, the inhibition in test [2] was found to be 97.3%. In addition, the response in test [3] was half-maximal at 94 µM (EC50). Moreover, in test [4], the “Selectivity Index” value is given as less than 1.
As to `O=c1cc(-c2ccc(O)cc2)oc2cc(O)cc(O)c12` [APIGENIN], in test [1], the IC50 turned out to be 443 µM. The inhibition in test [2] was 72%.
Consider `O=c1cc(-c2ccc(Oc3c(O)cc4oc(-c5ccc(O)cc5)cc(=O)c4c3O)cc2)oc2cc(O)cc(O)c12` [HINOKIFLAVONE], for which the values for the IC50 (in test [1]; in the test with PBMC) were 62 µM and 9 µM, respectively. The inhibition in test [2] turned out to be 89.9%. The compound also came in with an EC50 in test [3] of 4.1 µM. Besides, the “Selectivity Index” value in test [4] worked out at 2.2.
In the same order, the values of `O=C1c2c(O)cc(O)cc2O[C@H](c2ccc(O)cc2)[C@H]1c1c(O)cc(O)c2c(=O)cc(-c3ccc(O)c(O)c3)oc12` [MORELLOFLAVONE] are 116 µM, 82 µM, 99.2%, 6.9 µM and 12.
Regarding `O=c1cc(-c2ccc(O)c(-c3c(O)cc4oc(-c5ccc(O)cc5)cc(=O)c4c3O)c2)oc2cc(O)cc(O)c12` [ROBUSTAFLAVONE], the IC50 in test [1] is 65 µM; with PBMC it was 77 µM. The inhibition in test [2] is 91.4%. In test [3], this compound showed an EC50 of more than 100 µM. The “Selectivity Index” value in test [4] is less than 1.
For `Cc1cn([C@H]2C[C@H](N=[N+]=[N-])[C@@H](CO)O2)c(=O)[nH]c1=O` [ZIDOVUDINE], in test [4], the “Selectivity Index” value is more than 10. The IC50 with PBMC was more than 100 µM.

The IC50 is the concentration needed to halve the response being measured. As usually defined, the inhibition is the change of the read-out against control, counted positive when it falls. For orientation: EC50 means the midpoint of the concentration-response curve.
